The NIST ThermoML archive (doi:10.1016/j.tca.2005.08.036)
± gives the expanded uncertainty stated by the source.

Assay: mn = molality of the nth substance listed, in mol/kg
Settings: Liquid, Capillary tube (Ostwald / Ubbelohde) method

[I-].[Li+] [lithium iodide] + O
viscosity [mPa·s]
Settings	100 kPa	10000 kPa	40000 kPa
345.43 K, m1 = 2.16	–	–	0.5015 ± 0.0047
347.42 K, m1 = 0.2832	0.394 ± 0.0039	0.3976 ± 0.004	0.4052 ± 0.004
348.24 K, m1 = 3.089	0.5101 ± 0.0048	0.5144 ± 0.0048	0.5255 ± 0.0049
363.94 K, m1 = 3.089	0.4275 ± 0.0041	0.4317 ± 0.0041	0.4435 ± 0.0042
364.95 K, m1 = 2.16	0.3905 ± 0.0039	0.3944 ± 0.0038	0.4048 ± 0.0039
367.05 K, m1 = 0.2832	0.3119 ± 0.0033	0.3142 ± 0.0033	0.3227 ± 0.0033
368.75 K, m1 = 1.605	0.3544 ± 0.0036	0.358 ± 0.0036	0.3678 ± 0.0036
368.79 K, m1 = 0.16	0.3014 ± 0.0032	0.3044 ± 0.0032	0.3128 ± 0.0033
369.35 K, m1 = 0.08	0.2968 ± 0.0032	0.2996 ± 0.0032	0.3079 ± 0.0032
369.49 K, m1 = 0.6621	0.3189 ± 0.0034	0.3222 ± 0.0033	0.3313 ± 0.0034
396.7 K, m1 = 0.08	–	0.2301 ± 0.0026	0.2381 ± 0.0027
397.72 K, m1 = 2.16	–	0.2921 ± 0.0031	0.3023 ± 0.0032
397.82 K, m1 = 0.16	–	0.2304 ± 0.0026	0.2385 ± 0.0027
398.32 K, m1 = 0.2832	–	0.2331 ± 0.0027	0.2414 ± 0.0027
398.72 K, m1 = 3.089	–	0.3165 ± 0.0033	0.3278 ± 0.0034
398.94 K, m1 = 1.605	–	0.2713 ± 0.0029	0.2809 ± 0.003
399.03 K, m1 = 0.6621	–	0.2447 ± 0.0028	0.2534 ± 0.0028
421.45 K, m1 = 0.6621	–	0.206 ± 0.0025	0.2139 ± 0.0025
422.12 K, m1 = 0.08	–	0.1885 ± 0.0023	0.1959 ± 0.0024
422.41 K, m1 = 3.089	–	0.2666 ± 0.0029	0.277 ± 0.003
422.47 K, m1 = 1.605	–	0.2275 ± 0.0026	0.2363 ± 0.0027
424.14 K, m1 = 0.2832	–	0.1913 ± 0.0024	0.1988 ± 0.0024
424.41 K, m1 = 2.16	–	0.24 ± 0.0027	0.2494 ± 0.0028
424.49 K, m1 = 0.16	–	0.1874 ± 0.0023	0.1947 ± 0.0024
444.25 K, m1 = 2.16	–	0.2119 ± 0.0025	0.2206 ± 0.0026
447.54 K, m1 = 3.089	–	0.2284 ± 0.0026	0.2383 ± 0.0027
447.94 K, m1 = 1.605	–	0.1945 ± 0.0024	0.2029 ± 0.0024
448.75 K, m1 = 0.16	–	0.1602 ± 0.0021	0.1674 ± 0.0022
449.02 K, m1 = 0.08	–	0.1581 ± 0.0021	0.1648 ± 0.0022
449.06 K, m1 = 0.6621	–	0.1725 ± 0.0022	0.1802 ± 0.0023
449.71 K, m1 = 0.2832	–	0.1622 ± 0.0021	0.1696 ± 0.0022
472.45 K, m1 = 0.08	–	0.1387 ± 0.002	0.1452 ± 0.002
472.92 K, m1 = 0.2832	–	0.1429 ± 0.002	0.1501 ± 0.0021
473.06 K, m1 = 1.605	–	0.1699 ± 0.0022	0.1784 ± 0.0023
473.07 K, m1 = 2.16	–	0.1815 ± 0.0023	0.19 ± 0.0023
473.46 K, m1 = 0.16	–	0.1397 ± 0.002	0.1467 ± 0.002
473.71 K, m1 = 3.089	–	0.1992 ± 0.0024	0.2091 ± 0.0025
474.98 K, m1 = 0.6621	–	0.1497 ± 0.0021	0.1572 ± 0.0021
522.7 K, m1 = 0.16	–	0.1109 ± 0.0018	0.1182 ± 0.0018
523.42 K, m1 = 3.089	–	0.1603 ± 0.0021	0.1711 ± 0.0022
523.72 K, m1 = 0.08	–	0.1089 ± 0.0018	0.1163 ± 0.0018
524.07 K, m1 = 0.2832	–	0.1123 ± 0.0018	0.1199 ± 0.0018
524.86 K, m1 = 1.605	–	0.1344 ± 0.0019	0.1433 ± 0.002
525.42 K, m1 = 0.6621	–	0.1185 ± 0.0018	0.1266 ± 0.0019
525.49 K, m1 = 2.16	–	0.1435 ± 0.002	0.1531 ± 0.0021
